Literature values as cited in PMC2483489 (Acta Crystallographica Section D: Biological Crystallography, 2006).

What was measured:
[1] = test system: KDR; details: statement in words, no reference given
[2] = test system: c-Kit; details: ref Mol et al., 2004
[3] = test system: Irk; details: statement in words, no reference given
[4] = test system: Flt-3; details: statement in words, no reference given
[5] = test system: resistance mutants isolated from relapsed imatinib patients; details: ref Weisberg et al., 2006, Kantarjian et al.

SMILES | Binding to KDR [1] | Binding to c-Kit [2] | Binding to Irk [3] | Binding to Flt-3 [4] | Activity against imatinib-resistance mutants [5]
Cc1ccc(NC(=O)c2ccc(CN3CCN(C)CC3)cc2)cc1Nc1nccc(-c2cccnc2)n1 [Imatinib, imatinib] | does not bind | does bind | does not bind | does not bind | 
Cc1cn(-c2cc(NC(=O)c3ccc(C)c(Nc4nccc(-c5cccnc5)n4)c3)cc(C(F)(F)F)c2)cn1 [NVP-AMN107, nilotinib] |  |  |  |  | active against all but one of the resistance mutants
